Measured values published in patent US8173635B2, “Kinase inhibitors” (Vertex Pharmaceuticals Incorporated, priority 2007, dated 2012).
Read-outs that look alike come from different tables or passages of the source.

Tests used:
Assay type in all cases: biochemical
PKC delta kinase = PKC delta kinase (Homo sapiens, UniProt Q05655); experiment: PKC delta kinase inhibition, coupled-enzyme NADH absorbance assay (Ki)
Outline: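 Assay buffer was 100 mM HEPES pH 7.5, 10 mM MgCl2, 25 mM NaCl, 0.1 mM EDTA, 0.01% Brij. Enzyme buffer was equilibrated with compound in DMSO for 10 min at 30 °C. Ki values were derived by non-linear regression of initial rate data.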

PKC alpha kinase = PKC alpha kinase (Homo sapiens, UniProt P17252); experiment: PKC alpha kinase inhibition, coupled-enzyme NADH absorbance assay (Ki)
PKC theta kinase = PKC theta kinase (Homo sapiens, UniProt Q04759); experiment: PKC theta kinase inhibition, coupled-enzyme NADH absorbance assay (Ki)
PKC theta kinase, sequence (Q04759 whole entry): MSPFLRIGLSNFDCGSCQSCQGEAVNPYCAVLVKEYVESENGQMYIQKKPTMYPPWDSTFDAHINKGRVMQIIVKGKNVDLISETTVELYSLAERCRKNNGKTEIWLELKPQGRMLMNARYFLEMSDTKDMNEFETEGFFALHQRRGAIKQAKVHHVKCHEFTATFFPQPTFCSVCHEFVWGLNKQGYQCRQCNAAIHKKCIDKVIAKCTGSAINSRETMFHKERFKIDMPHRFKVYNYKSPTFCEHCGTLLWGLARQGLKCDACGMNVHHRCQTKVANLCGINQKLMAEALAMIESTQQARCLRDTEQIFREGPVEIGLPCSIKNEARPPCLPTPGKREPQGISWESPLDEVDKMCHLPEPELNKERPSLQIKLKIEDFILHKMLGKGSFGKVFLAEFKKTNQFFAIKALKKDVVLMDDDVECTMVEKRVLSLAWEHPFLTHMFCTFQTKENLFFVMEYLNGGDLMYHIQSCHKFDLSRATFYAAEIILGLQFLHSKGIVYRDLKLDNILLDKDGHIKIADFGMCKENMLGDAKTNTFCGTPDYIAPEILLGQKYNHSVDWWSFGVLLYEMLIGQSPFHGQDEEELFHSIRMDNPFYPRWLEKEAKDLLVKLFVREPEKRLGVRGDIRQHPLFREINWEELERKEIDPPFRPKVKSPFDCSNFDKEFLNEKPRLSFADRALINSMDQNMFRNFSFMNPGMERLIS
Outline: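 Coupled-enzyme kinase assay following NADH absorbance at 340 nm, in 100 mM HEPES pH 7.5, 10 mM MgCl2, 25 mM NaCl, 0.1 mM EDTA, 0.01% Brij. Compound in DMSO preincubated with enzyme 10 min at 30 °C. Ki from initial rates by non-linear regression.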

[1] = 150 μM ATP, 46 nM PKC delta, 30° C., read-out: Ki PKC delta
[2] = 130 μM ATP, 4.5 nM PKC alpha, 30° C., read-out: Ki PKC alpha
[3] = 240 μM ATP, 18 nM PKC theta, 30° C., read-out: Ki PKC theta

PKC delta kinase, sequence (Q05655 whole entry): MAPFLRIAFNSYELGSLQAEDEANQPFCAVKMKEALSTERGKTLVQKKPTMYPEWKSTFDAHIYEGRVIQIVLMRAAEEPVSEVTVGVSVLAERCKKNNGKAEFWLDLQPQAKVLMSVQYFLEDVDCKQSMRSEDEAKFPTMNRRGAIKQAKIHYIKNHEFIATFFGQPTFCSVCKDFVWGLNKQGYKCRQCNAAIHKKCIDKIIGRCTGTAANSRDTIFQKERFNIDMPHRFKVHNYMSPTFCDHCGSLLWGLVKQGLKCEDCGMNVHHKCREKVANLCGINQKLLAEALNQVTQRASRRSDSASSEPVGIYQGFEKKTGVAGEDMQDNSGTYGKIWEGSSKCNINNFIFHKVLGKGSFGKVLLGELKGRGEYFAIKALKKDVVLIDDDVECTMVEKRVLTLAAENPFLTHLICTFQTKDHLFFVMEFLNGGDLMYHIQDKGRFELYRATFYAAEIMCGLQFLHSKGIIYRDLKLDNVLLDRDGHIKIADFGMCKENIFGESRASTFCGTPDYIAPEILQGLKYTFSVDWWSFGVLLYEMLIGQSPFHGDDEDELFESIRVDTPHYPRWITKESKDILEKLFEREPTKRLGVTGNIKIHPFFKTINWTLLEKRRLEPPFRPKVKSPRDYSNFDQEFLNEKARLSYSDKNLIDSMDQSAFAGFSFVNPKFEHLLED

Row | Compound | Ki (PKC delta kinase; [1]) | Ki (PKC alpha kinase; [2]) | Ki (PKC theta kinase; [3]) | Ki (PKC delta kinase) | Ki (PKC alpha kinase) | Ki (PKC theta kinase)
1 | CC(C)(C#N)c1cc(CCCO)cc(-c2ccnc3[nH]ncc23)c1 [Compound 78] | < 2800 nM | < 2800 nM | < 50 nM |  |  | 
2 | C/C=C/c1cc(-c2ccnc3[nH]ncc23)cc(C(C)(C)C#N)c1 [Compound 54] | > 2800 nM | > 2800 nM | < 500 nM |  |  | 
3 | COCC(C)(C#N)c1cccc(-c2ccnc3[nH]ncc23)c1 (stereo not drawn) [Compound 95] | > 2800 nM | < 2800 nM | < 500 nM |  |  | 
4 | NC1(c2cccc(-c3ccnc4[nH]ncc34)c2)CC1 [Compound 223] | > 2000 nM | > 1200 nM | < 2800 nM |  |  | 
5 | N#CC1(c2cc(-c3ccnc4[nH]nc(C(F)(F)F)c34)cc(C(F)(F)CN)c2)CC1 [Compound 311] | < 500 nM | < 500 nM | < 50 nM |  |  | 
6 | CC#CC1(c2cc(C)cc(-c3ccnc4[nH]nc(C(F)(F)F)c34)c2)CNC(=O)O1 (stereo not drawn) [Compound 295] | > 1200 nM | > 1200 nM | > 700 nM |  |  | 
7 | NCC1(c2cccc(-c3ccnc4[nH]ncc34)c2)CC(F)(F)C1 [Compound 235] | < 500 nM | > 1200 nM | < 50 nM |  |  | 
8 | C/C=C\C1(c2cccc(-c3ccnc4[nH]ncc34)c2)CCNC1 (stereo not drawn) [Compound 197] | < 500 nM | < 500 nM | < 50 nM |  |  | 
9 | CCC(C)(C#N)c1cc(CCCOC)cc(-c2ccnc3[nH]ncc23)c1 (stereo not drawn) [Compound 109] | > 2000 nM | < 2800 nM | < 500 nM |  |  | 
10 | CCC(C)(CN)c1cc(CCCO)cc(-c2ccnc3[nH]nc(Cl)c23)c1 (stereo not drawn) [Compound 208] | < 500 nM | < 500 nM | < 50 nM |  |  | 
11 | N#C[C@]1(c2cccc(-c3ccnc4[nH]ncc34)c2)C[C@@H](O)C1 [Compound 220] | > 2000 nM | > 1200 nM | < 500 nM |  |  | 
12 | N#CC1(c2cc(CCN)cc(-c3ccnc4[nH]ncc34)c2)CC1 [Compound 128] | > 2000 nM | > 1200 nM | < 500 nM |  |  | 
13 | CCC(C)(CN)c1cc(Br)cc(-c2ccnc3[nH]ncc23)c1 (stereo not drawn) [Compound 167] | < 500 nM | < 500 nM | < 50 nM |  |  | 
14 | CC(C#N)(Cc1cccnc1)c1cccc(-c2ccnc3[nH]ncc23)c1 (stereo not drawn) [Compound 116] | > 2000 nM | > 1200 nM | > 700 nM |  |  | 
15 | CCC(C)(C#N)c1cc(CCC(F)F)cc(-c2ccnc3[nH]ncc23)c1 (stereo not drawn) [Compound 108] | > 2000 nM | > 1200 nM | < 500 nM |  |  | 
16 | CC#CC[C@@](C)(CN)c1cccc(-c2ccnc3[nH]ncc23)c1 [Compound 186] | < 2800 nM | < 2800 nM | < 500 nM |  |  | 
17 | CCC(C)(C#N)c1cc(CO)cc(-c2ccnc3[nH]ncc23)c1 (stereo not drawn) [Compound 121] | > 2000 nM | > 1200 nM | < 500 nM |  |  | 
18 | NCC1(c2cccc(-c3ccnc4[nH]ncc34)c2)CCCCC1 [Compound 177] | < 500 nM | < 2800 nM | < 50 nM |  |  | 
19 | Cc1cc(-c2ccnc3[nH]ncc23)cc(C2(CN)CCC2)c1 [Compound 145] | < 2800 nM | < 2800 nM | < 50 nM |  |  | 
20 | CCc1n[nH]c2nccc(-c3cccc(CN)c3)c12 [Compound 270] | > 1200 nM | > 1200 nM | > 700 nM |  |  | 
21 | CCC(C)(C#N)c1cc(-c2ccnc3[nH]ncc23)cc(C(F)F)c1 (stereo not drawn) [Compound 110] | > 2000 nM | < 500 nM | < 50 nM |  |  | 
22 | CCC(F)c1cc(-c2ccnc3[nH]ncc23)cc(C(C)(CC)CN)c1 (stereo not drawn) [Compound 158] | > 2000 nM | < 2800 nM | < 500 nM |  |  | 
23 | NCCc1cc(Br)cc(-c2ccnc3[nH]ncc23)c1 [Compound 176] |  |  |  | < 2800 nM | > 1200 nM | < 500 nM

Row | Compound | Ki (PKC delta kinase; [1]) | Ki (PKC alpha kinase; [2]) | Ki (PKC theta kinase; [3]) | Ki (PKC delta kinase) | Ki (PKC alpha kinase) | Ki (PKC theta kinase)
24 | CCC1(c2cc(C)cc(-c3ccnc4[nH]ncc34)c2)CNC(=O)O1 (stereo not drawn) [Compound 228] | < 2800 nM | < 500 nM | < 50 nM |  |  | 
25 | N#C[C@]1(c2cccc(-c3ccnc4[nH]ncc34)c2)C[C@H](N)C1 [Compound 229] | < 500 nM | < 500 nM | < 50 nM |  |  | 
26 | COc1ccc(C2(CN)CCC2)cc1-c1ccnc2[nH]ncc12 [Compound 222] | > 2000 nM | > 1200 nM | > 700 nM |  |  | 
27 | CC(C)(CN)c1cc(Br)cc(-c2ccnc3[nH]ncc23)c1 [Compound 34] | < 500 nM | < 2800 nM | < 50 nM |  |  | 
28 | Cc1cc(-c2ccnc3[nH]nc(C4CC4)c23)cc(C2(CN)CC2)c1 [Compound 268] | < 500 nM | < 500 nM | < 50 nM |  |  | 
29 | CC(C)(C)c1n[nH]c2nccc(-c3cc(Br)cc(C(C)(C)C#N)c3)c12 [Compound 112] | > 2000 nM | > 1200 nM | > 700 nM |  |  | 
30 | CC(C)C(O)c1cc(-c2ccnc3[nH]ncc23)cc(C(C)(C)C#N)c1 (stereo not drawn) [Compound 19] | > 2800 nM | > 2800 nM | < 500 nM |  |  | 
31 | CCC(C)(CO)c1cc(C)cc(-c2ccnc3[nH]ncc23)c1 (stereo not drawn) [Compound 241] | < 2800 nM | < 500 nM | < 50 nM |  |  | 
32 | CCC(C)(C#N)c1cc(CC#N)cc(-c2ccnc3[nH]ncc23)c1 (stereo not drawn) [Compound 126] | > 2000 nM | > 1200 nM | < 500 nM |  |  | 
33 | CC(CN)(Cc1cccnc1)c1cccc(-c2ccnc3[nH]ncc23)c1 (stereo not drawn) [Compound 171] | < 500 nM | < 500 nM | < 50 nM |  |  | 
34 | CC(C)=CCC(C)(CN)c1cccc(-c2ccnc3[nH]ncc23)c1 (stereo not drawn) [Compound 154] | < 500 nM | < 500 nM | < 50 nM |  |  | 
35 | N#CCC1(c2cccc(-c3ccnc4[nH]ncc34)c2)CCNC1 (stereo not drawn) [Compound 200] | < 500 nM | < 500 nM | < 50 nM |  |  | 
36 | FC(F)CC1(c2cccc(-c3ccnc4[nH]ncc34)c2)CNC1 [Compound 191, 4-(3-(3-(2,2-Difluoroethyl)azetidin-3-yl)phenyl)-1H-pyrazolo[3,4-b]pyridine] | < 500 nM | < 500 nM | < 50 nM |  |  | 
37 | NCC1(c2cc(F)cc(-c3ccnc4[nH]nc(Br)c34)c2)CCC1 [Compound 261] | < 50 nM | < 50 nM | < 50 nM |  |  | 
38 | CC[C@@](C)(CN)c1cccc(-c2ccnc3[nH]ncc23)c1 [Compound 152] | < 500 nM | < 500 nM | < 50 nM |  |  | 
39 | CCCc1cc(-c2ccnc3[nH]ncc23)cc(C2(CN)CCCC2)c1 [Compound 147] | > 2800 nM | > 2800 nM | < 500 nM |  |  | 
40 | CC(C#N)(Cc1ccccn1)c1cccc(-c2ccnc3[nH]ncc23)c1 (stereo not drawn) [Compound 115] | > 2000 nM | > 1200 nM | > 700 nM |  |  | 
41 | CCC(C)(CN)c1cccc(-c2ccnc3[nH]nc(C)c23)c1 (stereo not drawn) [Compound 212, 2-methyl-2-(3-(3-methyl-1H-pyrazolo[3,4-b]pyridin-4-yl)phenyl)butan-1-amine] | < 50 nM | < 50 nM | < 50 nM |  |  | 
42 | CC(C)(O)C#Cc1cc(-c2ccnc3[nH]nc(C(F)(F)F)c23)cc(C2(C#N)CC2)c1 [Compound 315] | > 1200 nM | > 1200 nM | < 2800 nM |  |  | 
43 | NC[C@]1(c2cccc(-c3ccnc4[nH]ncc34)c2)CC[C@@H](O)CC1 [Compound 182] | < 2800 nM | > 1200 nM | < 500 nM |  |  | 
44 | CC[C@](C)(CN)c1cccc(-c2ccnc3[nH]ncc23)c1 [Compound 151] | < 50 nM | < 500 nM | < 50 nM |  |  | 
45 | C=C1CCc2ccc(-c3ccnc4[nH]ncc34)cc21 [Compound 202, 4-(3-Methylene-2,3-dihydro-1H-inden-5-yl)-1H-pyrazolo[3,4-b]pyridine] | > 2800 nM | > 2800 nM | > 2800 nM |  |  | 
